Measured values published in PubChem BioAssay AID248 (DTP/NCI, 2004).
Where “and” joins values, the source holds several entries; their conditions need not be identical. Equal entries are not always repeated. Toxic doses and inconclusive results are not listed. Cut-off read from the data, not from the text of the source: active = T/C of 150% or more; inactive = T/C below 125%.

System: L1210 leukemia ip in BDF1 mice, survival T/C
Assay: NCI In Vivo Anticancer Drug Screen. Data for tumor model L1210 Leukemia (intraperitoneal) in B6D2F1 (BDF1) mice
Details: endpoint: mean survival time, higher = longer survival
Outline: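 Transplantable tumor model; survival measured in treated vs vehicle control mice. Value = treated/control.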

[1] = dose: 100.0 mg/kg/injection, schedule: Q01DX001 (ip), vehicle: saline
[2] = dose: 100.0 mg/kg/injection, schedule: Q01DX009 (ip), vehicle: saline with Tween-80
[3] = dose: 100.0 mg/kg/injection, schedule: Q04DX003 (ip), vehicle: saline with Tween-80
[4] = dose: 200.0 mg/kg/injection, schedule: Q01DX001 (ip), vehicle: saline
[5] = dose: 200.0 mg/kg/injection, schedule: Q01DX009 (ip), vehicle: saline with Tween-80
[6] = dose: 200.0 mg/kg/injection, schedule: Q04DX003 (ip), vehicle: saline with Tween-80
[7] = dose: 400.0 mg/kg/injection, schedule: Q01DX001 (ip), vehicle: saline
[8] = dose: 400.0 mg/kg/injection, schedule: Q01DX009 (ip), vehicle: saline with Tween-80
[9] = dose: 400.0 mg/kg/injection, schedule: Q04DX003 (ip), vehicle: saline with Tween-80
[10] = dose: 100.0 mg/kg/injection, schedule: Q01DX009 (ip), vehicle: Klucel (hydroxypropylcellulose) (HPC)
[11] = dose: 200.0 mg/kg/injection, schedule: Q01DX009 (ip), vehicle: Klucel (hydroxypropylcellulose) (HPC)
[12] = dose: 400.0 mg/kg/injection, schedule: Q01DX009 (ip), vehicle: Klucel (hydroxypropylcellulose) (HPC)
[13] = dose: 100.0 mg/kg/injection, schedule: Q04DX003 (ip), vehicle: Klucel (hydroxypropylcellulose) (HPC)
[14] = dose: 200.0 mg/kg/injection, schedule: Q04DX003 (ip), vehicle: Klucel (hydroxypropylcellulose) (HPC)
[15] = dose: 400.0 mg/kg/injection, schedule: Q04DX003 (ip), vehicle: Klucel (hydroxypropylcellulose) (HPC)
[16] = dose: 100.0 mg/kg/injection, schedule: Q01DX001 (ip), vehicle: carboxymethylcellulose (CMC)
[17] = dose: 200.0 mg/kg/injection, schedule: Q01DX001 (ip), vehicle: carboxymethylcellulose (CMC)
[18] = dose: 400.0 mg/kg/injection, schedule: Q01DX001 (ip), vehicle: carboxymethylcellulose (CMC)
[19] = dose: 50.0 mg/kg/injection, schedule: Q01DX001 (ip), vehicle: carboxymethylcellulose (CMC)
[20] = dose: 100.0 mg/kg/injection, schedule: Q04DX002 (ip), vehicle: Klucel (hydroxypropylcellulose) (HPC)
[21] = dose: 200.0 mg/kg/injection, schedule: Q04DX002 (ip), vehicle: Klucel (hydroxypropylcellulose) (HPC)

Measured: T/C

O=C(O)c1cscn1
inactive: [1] 93 % of control | [2] 101 % of control and 90 % of control | dose: 100.0 mg/kg/injection, schedule: Q04DX002 (ip), vehicle: saline with Tween-80 97 % of control and 107 % of control | [3] 108 % of control | [4] 103 % of control | [5] 95 % of control and 97 % of control | dose: 200.0 mg/kg/injection, schedule: Q04DX002 (ip), vehicle: saline with Tween-80 97 % of control and 106 % of control | [6] 98 % of control | [7] 93 % of control | [8] 92 % of control | dose: 400.0 mg/kg/injection, schedule: Q04DX002 (ip), vehicle: saline with Tween-80 102 % of control and 92 % of control

Cc1cc(C)n(/N=C/c2cccc(Cl)c2)c(=O)c1C#N
inactive: [2] 88 % of control | [3] 95 % of control | [5] 87 % of control | [6] 90 % of control | [8] 92 % of control | [9] 90 % of control

Clc1nc(Cl)c(Cl)[nH]1
inactive: dose: 6.25 mg/kg/injection, schedule: Q01DX009 (ip), vehicle: saline with Tween-80 94 % of control | dose: 12.5 mg/kg/injection, schedule: Q01DX009 (ip), vehicle: saline with Tween-80 93 % of control

COc1cc(C=Nc2cccc(C(F)(F)F)c2)ccc1OC(=O)c1ccccc1
inactive: [10] 86 % of control | [11] 94 % of control | [12] 91 % of control

CC(=O)[O][Hg][c]1cc(C)c(O)c([N+](=O)[O-])c1
inactive: dose: 1.56 mg/kg/injection, schedule: Q04DX003 (ip), vehicle: Klucel (hydroxypropylcellulose) (HPC) 105 % of control | dose: 3.12 mg/kg/injection, schedule: Q01DX009 (ip), vehicle: Klucel (hydroxypropylcellulose) (HPC) 95 % of control | dose: 3.12 mg/kg/injection, schedule: Q04DX003 (ip), vehicle: Klucel (hydroxypropylcellulose) (HPC) 115 % of control | dose: 6.25 mg/kg/injection, schedule: Q01DX009 (ip), vehicle: Klucel (hydroxypropylcellulose) (HPC) 96 % of control | dose: 6.25 mg/kg/injection, schedule: Q04DX003 (ip), vehicle: Klucel (hydroxypropylcellulose) (HPC) 117 % of control | dose: 12.5 mg/kg/injection, schedule: Q04DX003 (ip), vehicle: Klucel (hydroxypropylcellulose) (HPC) 109 % of control

CC(c1ccccc1)n1cnc2c(=S)nc[nH]c21 (centres undefined)
inactive: [1] 92 % of control | [4] 95 % of control | [7] 103 % of control

CC(=O)NNc1ccc([N+](=O)[O-])cc1
inactive: [13] 89 % of control | [14] 94 % of control | [15] 89 % of control

Cc1cc(NC(=O)Nc2ccc(Cl)c(C(F)(F)F)c2)no1
inactive: dose: 50.0 mg/kg/injection, schedule: Q01DX009 (ip), vehicle: carboxymethylcellulose (CMC) 96 % of control and 97 % of control | [16] 110 % of control and 112 % of control | dose: 100.0 mg/kg/injection, schedule: Q04DX002 (ip), vehicle: carboxymethylcellulose (CMC) 94 % of control and 100 % of control | dose: 100.0 mg/kg/injection, schedule: Q04DX003 (ip), vehicle: carboxymethylcellulose (CMC) 96 % of control and 103 % of control | [17] 95 % of control and 108 % of control | dose: 200.0 mg/kg/injection, schedule: Q04DX002 (ip), vehicle: carboxymethylcellulose (CMC) 94 % of control and 97 % of control | dose: 200.0 mg/kg/injection, schedule: Q04DX003 (ip), vehicle: carboxymethylcellulose (CMC) 97 % of control and 101 % of control | [18] 94 % of control and 91 % of control | dose: 400.0 mg/kg/injection, schedule: Q01DX009 (ip), vehicle: carboxymethylcellulose (CMC) 86 % of control | dose: 400.0 mg/kg/injection, schedule: Q04DX002 (ip), vehicle: carboxymethylcellulose (CMC) 89 % of control and 90 % of control | dose: 400.0 mg/kg/injection, schedule: Q04DX003 (ip), vehicle: carboxymethylcellulose (CMC) 92 % of control and 95 % of control

c1ccc(C2C(c3ccccc3)N2c2ccccc2)cc1 (centres undefined)
inactive: [19] 105 % of control | [16] 113 % of control | [13] 92 % of control | [3] 97 % of control | [17] 113 % of control | [14] 94 % of control | [6] 90 % of control | [18] 103 % of control | [15] 92 % of control | [9] 87 % of control

CC1OC=CC(O)C1O (centres undefined)
inactive: dose: 50.0 mg/kg/injection, schedule: Q01DX001 (ip), vehicle: saline 94 % of control | [1] 100 % of control | [4] 105 % of control | [7] 97 % of control

CCCCCCn1c(O)c(C=N)c(=O)[nH]c1=O
inactive: [10] 100 % of control | [13] 93 % of control | [11] 99 % of control | [14] 100 % of control | [12] 97 % of control | [15] 94 % of control

C=CCc1cc(CNCC(C)O)c(O)c(OC)c1 (centres undefined)
inactive: dose: 50.0 mg/kg/injection, schedule: Q04DX003 (ip), vehicle: Klucel (hydroxypropylcellulose) (HPC) 95 % of control | [13] 93 % of control

CCc1ccccc1N/N=C(\Cl)C(C)=O
inactive: dose: 6.25 mg/kg/injection, schedule: Q01DX009 (ip), vehicle: saline 106 % of control | dose: 12.5 mg/kg/injection, schedule: Q01DX009 (ip), vehicle: saline 106 % of control | dose: 25.0 mg/kg/injection, schedule: Q01DX009 (ip), vehicle: saline 95 % of control

CC(=O)Cc1c[nH]c2ccccc12
inactive: [19] 103 % of control | [16] 97 % of control | [20] 97 % of control | [17] 106 % of control | [21] 101 % of control | [18] 103 % of control | dose: 400.0 mg/kg/injection, schedule: Q04DX002 (ip), vehicle: Klucel (hydroxypropylcellulose) (HPC) 111 % of control

Cc1nc2c(=O)[nH]n(C)c2nc1C
inactive: [2] 97 % of control | [5] 95 % of control | [8] 95 % of control

[CH3][Sn]([CH3])([Br])[CH2]CCBr
inactive: dose: 0.78 mg/kg/injection, schedule: Q01DX009 (ip), vehicle: saline 100 % of control | dose: 1.56 mg/kg/injection, schedule: Q01DX009 (ip), vehicle: saline 100 % of control

O=C(Nc1ccccc1F)C(Cl)(Cl)Cl
inactive: [20] 104 % of control | [21] 104 % of control

CCC(=O)c1cc([N+](=O)[O-])ccc1N
inactive: dose: 50.0 mg/kg/injection, schedule: Q01DX009 (ip), vehicle: saline with Tween-80 100 % of control | [2] 100 % of control | [5] 100 % of control

O=S(=O)(O)/C(=C\c1ccccc1)c1ccccc1 (tested in a mixture with another compound)
inactive: [1] 103 % of control | dose: 100.0 mg/kg/injection, schedule: Q04DX003 (ip), vehicle: other 106 % of control | [4] 104 % of control | dose: 200.0 mg/kg/injection, schedule: Q04DX003 (ip), vehicle: other 106 % of control | dose: 264.0 mg/kg/injection, schedule: Q01DX001 (ip), vehicle: other 108 % of control | dose: 400.0 mg/kg/injection, schedule: Q01DX001 (ip), vehicle: other 94 % of control | [7] 115 % of control

CN(C)CC/C=C1\c2ccccc2C(C)(C)c2ccc(Cl)cc21
inactive: dose: 2.0 mg/kg/injection, schedule: Q01DX015 (ip), vehicle: carboxymethylcellulose (CMC) 97 % of control | dose: 4.0 mg/kg/injection, schedule: Q01DX015 (ip), vehicle: carboxymethylcellulose (CMC) 96 % of control | dose: 8.0 mg/kg/injection, schedule: Q01DX015 (ip), vehicle: carboxymethylcellulose (CMC) 92 % of control | dose: 12.5 mg/kg/injection, schedule: Q01DX009 (ip), vehicle: acetone 86 % of control | dose: 16.0 mg/kg/injection, schedule: Q01DX015 (ip), vehicle: carboxymethylcellulose (CMC) 102 % of control and 91 % of control | dose: 25.0 mg/kg/injection, schedule: Q01DX009 (ip), vehicle: acetone 94 % of control | dose: 25.0 mg/kg/injection, schedule: Q04DX003 (ip), vehicle: saline 96 % of control | dose: 32.0 mg/kg/injection, schedule: Q01DX015 (ip), vehicle: carboxymethylcellulose (CMC) 98 % of control | dose: 50.0 mg/kg/injection, schedule: Q04DX003 (ip), vehicle: saline 91 % of control | [1] 87 % of control
